Reference: patent US6586639B2, “Functional alcohol releasing substance” (Kao Corporation, priority 1999, dated 2003)
Where “and” joins values, the source holds several entries; their conditions need not be identical. Equal values may be shown once.

Test system: Aspergillus niger
Assay: Fungal resistance test on coated test cloth
Format: cell-based
Set-up: key to Judgment (fungal resistance): NG: Completely no fungal growth; TG: Growth on less than 10% of the surface area; SG: Growth on 10% or more and less than 30% of the surface area; MG: Growth on 30% or more and less than 60% of the surface area; HG: Growth on 60% or more of the surface area
Settings: cultured 29±1° C. 7 days; for Growth rate (%) Average: average of three test cloths; for Growth rate (%): single test cloths (three per solution), 0.3 ml ethanol solution (A 1.17%, B 1.00%, C 0.300%) coated, dried 48 hours
Procedure: Each of betaine ester (1), betaine ester (3) and geraniol was dissolved in 99.5% ethanol to prepare solutions having the following concentrations and used as test solutions (A), (B) and (C), respectively.
Test solution (A): betaine ester (1), 1.17% in concentration
Test solution (B): betaine ester (3), 1.00% in concentration
Test solution (C): geraniol, 0.300% in concentration
(1) Preparation of test cloth
A 0.3 ml portion of each test solution or 0.3 ml of 99.5% ethanol used as a control was separately coated on a cotton-polyester mixture test cloth cut into a disc of 25 mm in diameter and then the cloth was dried at 25° C. under 30% relative humidity for 48 hours to be used as a test cloth. Three sheets of the test cloth were prepared for one test solution and used in the test.
(2) Fungal resistance test
A plate agar medium having the following composition was prepared to a thickness of 15 mm in a Petri dish of 150 mm in diameter. The medium was used by sterilizing it in advance at 120° C. for 20 minutes in an autoclave.
Pure water: 1,500 ml, glucose: 15 g, agar: 23 g, inorganic salts stock solution (NH4NO3 90 g, KH2PO4 60 g, MgSO4 7H2O, 15 g, KCl 15 g, pure water 1,000 g): 50 ml
Each test cloth was put on the above medium, and about 1 ml of a spore suspension prepared by dispersing spores of a fungus (Aspergillus niger) in sterile water (containing 0.005% sodium dioctylsulfosuccinate) was sprayed. This was cultured at 29±1° C. for 7 days to carry out comparative test of fungal resistance by inspecting growing condition of the fungus on the periphery or surface of the sample, and the results were evaluated based on the following five step criteria by observing growth condition of the fungus on the test cloth surface with the naked eye and under a microscope. That is, when the fungus is not grown on the surface of a test cloth and also, when the test cloth is peeled from the medium, the fungus is not grown on the backside but forming an inhibition zone, the result is judged as excellent in fungal resistance (NG).
Completely no fungal growth: NG (no growth)
Growth on less than 10% of the surface area: TG (trace of growth)
Growth on 10% or more and less than 30% of the surface area: SG (slight growth)
Growth on 30% or more and less than 60% of the surface area: MG (moderate growth)
Growth on 60% or more of the surface area: HG (heavy growth)

Row | Structure (SMILES) | Growth rate (%) Average | Judgment (fungal resistance) | Growth rate (%) | Growth rate (%) (listed as (C))
1 | CCCCCCCCCCCC(=O)NCCC[N+](C)(C)CC(=O)OC/C=C(\C)CCC=C(C)C.[Cl-] [betaine ester (3), N,N-dimethyl-N-geranyloxycarbonylmethyl-N-(3-(dodecanoylamino)propyl)ammonium chloride] | 0% | NG | 0% | –
2 | CCCCCCCCCCCCCCCCCC(=O)NCCC[N+](C)(C)CC(=O)OC/C=C(\C)CCC=C(C)C.[Cl-] [betaine ester (1), N,N-dimethyl-N-geranyloxycarbonylmethyl-N-(3-(octadecanoylamino)propyl)ammonium chloride] | 0% | NG | 0% | –
3 | CC(C)=CCC/C(C)=C/CO [geraniol, reference compound] | 36% | MG (Growth on 30% or more and less than 60% of the surface area) | – | 35% and 32% and 40%
